These results are taken from patent publication US8952054B2, “Small molecule inhibitors of MUC1 and methods of identifying the same” (Dana-Farber Cancer Institute, Inc., priority 2010, dated 2015).

Data set [1] relates to MUC1-expressing cancer cells. Nature of the data set: Secondary screen against MUC1-expressing cancer cells in vitro. Type of data set: cell-based. The conditions noted are these: legend: ZR-75-1 breast carcinoma cells, 2 days, anti-MUC1-C immunoblot. The method, then: ZR-75-1 breast carcinoma cells were treated with […] Kaempterol for 2 days. Total cell lysates were then analyzed by immunoblotting with anti-MUC1-C antibody (FIG. 17A) or with anti-Actin antibodies (FIG. 17B).
Initial screens were performed in the presence of compounds at a concentration of 100 μM.
In general terms: In western blotting, separated proteins are transferred to a membrane and probed.

The subject of a further data set is MCF-10A cells. Nature of the data set: MCF-10A cell number (MTS), caspase-9 cleavage and PI uptake. Type of data set: cell-based, human. The conditions noted are these: 3 d. The method, then: FIGS. 13A-D—Apigenin downregulates MUC1 and confers death of MCF-10A cells. (FIG. 13A) MCF-10A cells were treated with the indicated concentrations of apigenin and baicalein for 3 d, washed and then treated for an additional 3 d. Lysates were immunoblotted with the indicated antibodies. (FIG. 13B) MCF-10A cells were treated with the indicated concentrations apigenin (circles) and baicalein (squares) for 3 d. Viable cell number was determined by the MTS assay. The results (mean+SD of 3 determinations) are expressed as percentage of control growth in the presence of DMSO. (FIG. 13C) MCF-10A cells were treated with DMSO, 75 μM apigenin or 75 μM baicalein for 3 d. Lysates were subjected to immunoblotting with the indicated antibodies. (FIG. 13D) MCF-10A cells were treated with DMSO, 75 μM apigenin or 75 μM baicalein for 3 d, stained with propidium iodide and analyzed by flow cytometry.

In a further data set the target is CYP2C9 (Homo sapiens, UniProt P11712). The conditions noted are these: cited from earlier work.
In a further data set the target is T1, His-MUC1-CD (Homo sapiens, UniProt P15941).
T1 construct: made in house
T1 sequence (P15941 1184-1255): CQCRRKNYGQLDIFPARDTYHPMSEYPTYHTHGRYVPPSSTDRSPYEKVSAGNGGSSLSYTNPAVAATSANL
Kind of data set: BIAcore binding of peptides to immobilized His-MUC1-CD. How it is done:
FIGS. 1A-D. MUC1/CQC peptide blocks MUC1 oligomerization. (FIG. 1A) Schematic representation of the MUC1-C subunit and the 72-amino acid sequence of MUC1-CD (SEQ ID NO: 1) are shown. The N-terminal 15 amino acids (shaded sequence) MUC1/CQC (SEQ ID NO: 10) and mutated MUC1/AQA (SEQ ID NO: 11) peptides were synthesized with the poly-dArg transduction domain. (FIG. 1B) His-MUC1-CD (1.4 mg/ml) was immobilized on a sensor chip in a BIAcore. MUC1/CQC was injected over the chip at 10 μM. Raw binding data were analyzed by BIAevaluation software version 3.0 and fit to a 1:1 Languir binding model. (FIG. 1C) Purified His-MUC1-CD (1.5 mg/ml) was incubated with PBS, 200 μM MUC1/CQC or 200 μM MUC1/AQA for 1 h at room temperature. The proteins were separated in a non-reducing SDS-polyacrylamide gel and analyzed by immunoblotting with anti-MUC1-C. (FIG. 1D) 293 cells were transiently transfected to express an empty vector or GFP-MUC1-CD and Flag-MUC1-CD. At 48 h after transfection, the cells were treated with 5 μM MUC1/CQC or MUC1/AQA for 3 d. The cells were then harvested for immunoblotting with anti-MUC1-C (left panel). […]
The MUC1 cytoplasmic domain (MUC1-CD) contains a CQC motif that is necessary for the formation of oligomers and nuclear localization (Leng et al., 2007). […] Purified His-tagged MUC1-CD forms oligomers as detected by electrophoresis in polyacrylamide gels (FIG. 1C). […]
A general note: Surface plasmon resonance follows binding to a sensor surface in real time, without labels.

A further data set has as its target T2, MUC1-C (Homo sapiens, UniProt P15941).
T2 sequence (P15941 1098-1255 limits assumed): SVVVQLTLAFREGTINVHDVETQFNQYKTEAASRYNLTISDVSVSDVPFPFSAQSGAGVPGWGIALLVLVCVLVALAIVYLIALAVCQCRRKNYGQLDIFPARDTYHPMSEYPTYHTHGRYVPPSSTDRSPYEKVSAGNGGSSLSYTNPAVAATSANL
Kind of data set: Immunoblot of whole cell and nuclear MUC1-C levels in ZR-75-1 cells. Type of data set: cell-based. Also noted: Human ZR-75-1 and MCF-7 breast cancer cells overexpress endogenous MUC1; endogenous in cells; host or cells: ZR-75-1; MCF-7. The conditions noted are these: ZR-75-1, 5 μM peptide, 3 d; for nuclear MUC1-C levels: nuclear lysates; for cellular MUC1-C levels: whole cell lysates. The method, then:
FIGS. 2A-C. MUC1/CQC peptide blocks nuclear localization of MUC1-C. (FIG. 2A) ZR-75-1 cells were incubated with 5 μM FITC-labeled MUC1/CQC peptide for the indicated times and then analyzed by flow cytometry. The mean fluorescence index (MFI) is included in each of the panels. (FIGS. 2B-C) ZR-75-1 (FIG. 2B) and MCF-7 (FIG. 2C) cells were incubated in the presence of 5 μM MUC1/CQC or MUC1/AQA peptide for 3 d. Whole cell lysates (WCL) (left panels) and nuclear lysates (right panels) were immunoblotted with the indicated antibodies.
Whole cell and nuclear lysates were prepared as described (Leng et al., 2007). Soluble proteins were subjected to immunoprecipitation with anti-Flag (Sigma, St. Louis, Mo.). Immunoprecipitates and soluble proteins were analyzed by immunoblotting with anti-His (Cell Signaling Technology, Danvers, Mass.), anti-GFP (Millipore, Danvers, Mass.), anti-Flag, anti-MUC1-C (Ab1; NeoMarkers, Fremont, Calif.), anti-lamin B (EMD, La Jolla, Calif.) or anti-β-actin (Sigma). Reactivity was detected with horseradish peroxidase-conjugated second antibodies and chemiluminescence.

CYP2C9, sequence (P11712 whole entry, species assumed): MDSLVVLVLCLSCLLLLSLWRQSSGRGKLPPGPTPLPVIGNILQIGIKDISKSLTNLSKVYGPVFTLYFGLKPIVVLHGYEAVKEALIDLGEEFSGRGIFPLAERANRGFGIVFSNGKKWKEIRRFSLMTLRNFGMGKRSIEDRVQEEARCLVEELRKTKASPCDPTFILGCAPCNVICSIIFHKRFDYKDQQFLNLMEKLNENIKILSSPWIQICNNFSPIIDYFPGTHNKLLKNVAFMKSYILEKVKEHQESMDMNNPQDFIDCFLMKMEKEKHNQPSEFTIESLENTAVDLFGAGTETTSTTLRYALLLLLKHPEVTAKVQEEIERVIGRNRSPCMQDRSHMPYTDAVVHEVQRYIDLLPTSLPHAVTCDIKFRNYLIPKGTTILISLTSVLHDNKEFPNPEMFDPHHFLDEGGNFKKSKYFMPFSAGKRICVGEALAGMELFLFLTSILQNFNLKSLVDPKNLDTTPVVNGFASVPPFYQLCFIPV

As to `O=c1cc(-c2ccc(O)cc2)oc2cc(O)cc(O)c12` [Apigenin, 4′,5,7-trihydroxyflavone], the “inhibition (FIGS. 17A-B)” value in data set [1] is given as “showed inhibition”. Also, in the data set on MCF-10A cells (75 μM), the caspase-9 cleavage result is reported as “caspase-9 cleavage” and the “cell membrane integrity (PI uptake)” value was “loss of cell membrane integrity”. Further, in the data set on MCF-10A cells, the “cell number (MTS)” value is recorded as “decreased MCF-10A cell number”. Besides, on CYP2C9, the “inhibition of CYP2C9” value was “potent inhibitor”.
Take `O=c1cc(-c2ccccc2)oc2cc(O)c(O)c(O)c12` [Baicalein, 5,6,7-trihydroxyflavone, reference compound]: the “inhibition (FIGS. 17A-B)” value in data set [1] was “did not”. Further, the caspase-9 cleavage result in the data set on MCF-10A cells (75 μM) was “not”. Further, in the data set with MCF-10A cells, the “cell number (MTS)” value is “substantially less effective”.
Take `CC[C@H](C)[C@H](NC(=O)[C@H](CC(=O)O)NC(=O)[C@H](CC(C)C)NC(=O)[C@H](CCC(N)=O)NC(=O)CNC(=O)[C@H](Cc1ccc(O)cc1)NC(=O)[C@H](CC(N)=O)NC(=O)[C@H](CCCCN)NC(=O)[C@H](CCCNC(=N)N)NC(=O)[C@H](CCCNC(=N)N)NC(=O)[C@H](CS)NC(=O)[C@H](CCC(N)=O)NC(=O)[C@H](CS)NC(=O)[C@@H](CCCNC(=N)N)NC(=O)[C@@H](CCCNC(=N)N)NC(=O)[C@@H](CCCNC(=N)N)NC(=O)[C@@H](CCCNC(=N)N)NC(=O)[C@@H](CCCNC(=N)N)NC(=O)[C@@H](CCCNC(=N)N)NC(=O)[C@@H](CCCNC(=N)N)NC(=O)[C@@H](CCCNC(=N)N)NC(=O)[C@H](N)CCCNC(=N)N)C(=O)N[C@@H](Cc1ccccc1)C(=O)N1CCC[C@H]1C(=O)O` [MUC1/CQC]: on His-MUC1-CD (His-tagged MUC1-CD immobilized on BIAcore sensor chip, peptide injected at 10 μM, 1:1 binding model, read-out: dissociation constant (Kd)), the Kd turned out to be 30 nM. On MUC1-C, the “nuclear MUC1-C levels” value is listed as “decreases in nuclear MUC1-C levels” and the “cellular MUC1-C levels” value is recorded as “no effect”.
On to “MUC1/AQA: control peptide in which the CQC motif was altered to AQA (SEQ ID NO: 11) (AQARRKNYGQLDIFP) [reference compound]”, for which the “binding to His-MUC1-CD” value with His-MUC1-CD (BIAcore, data not shown) was “no apparent binding”. For the same molecule, in the data set with MUC1-C, the “nuclear MUC1-C levels” value is listed as “not” and the “cellular MUC1-C levels” value is “no effect”.

Broadly, the Kd is the concentration at which binding is half-saturated.
